Assay results: US9302996B2, “Continuous arycyclic compound” (MITSUBISHI TANABE PHARMA CORPORATION, priority 2010, dated 2016)

Tested on: ICR mice
Assay: Triglyceride (TG) in blood plasma increase-inhibiting action due to lipid administration
Type: in vivo
Conditions: Mus musculus; male ICR mice, 5 mg/kg oral, lipid (Intralipos 20%) after 30 minutes, plasma TG 2 hours after lipid; read-out: Inhibiting rate of TG-increase in blood plasma (5 mg/kg)
Method: 6 to 9 weeks-old male ICR mice were fasted overnight, and Test compound suspended in 0.2% carboxymethyl cellulose solution was orally administered to the mice. A lipid (Intralipos 20%, OTSUKA PHARMACEUTICAL CO., LTD., 10 mL/kg) was orally administered after 30 minutes. Blood was collected from tail vein immediately before the lipid administration, and after 2 hours from the same to obtain blood plasma. Measurement of TG in blood plasma was carried out by using a triglyceride E Test Wako (Wako Pure Chemical Industries, Ltd.), and an increased value of TG in blood plasma by administration of the lipid was calculated. An increased value of TG in blood plasma in a solvent control group was used as a control, and an inhibiting rate in increase of TG in blood plasma in the Test compound administered group was calculated.

| Compound | inhibition in vivo at 5 mg/kg |
| --- | --- |
| CC(C)(COc1ccc(-c2ccc(-c3ncc(C4CCC(F)(F)CC4)[nH]3)cn2)cc1)C(=O)O [Example 34] | 19% |
| Cc1cc(OCC2(C(=O)O)CC2)ncc1-c1ccc(-c2ncc(C(F)(F)F)[nH]2)c(Cl)c1 [Example 100-5), 1-{[(5-{3-chloro-4-[5-(trifluoromethyl)-1H-imidazol-2-yl]phenyl}-4-methylpyridin-2-yl)oxy]methyl}cyclopropanecarboxylic acid] | 60% |
| CC(C)(COc1ncc(-c2ccc(-c3ncc(C4(C(F)(F)F)CC4)[nH]3)cc2)cc1F)C(=O)O [Example 111] | 41% |
| CC(C)(COc1ncc(-c2ccc(-c3ncc(C4(C(F)(F)F)CCC4)[nH]3)cc2)cc1F)C(=O)O [Example 144] | 7% |
| Cc1cc(OCC(C)(C)C(=O)O)ncc1-c1ccc(-c2ncc(CC(C)C)[nH]2)c(C)c1 [Example 103] | 8% |
| O=C(O)CCCCOc1ccc(-c2ccc(-c3ncc(C(F)(F)F)[nH]3)cn2)cc1 [Example 15] | 32% |
| CC(C)(COc1ccc(-c2ccc(-c3ncc(C(C)(C)C(F)(F)F)[nH]3)c(F)c2)cn1)C(=O)O [Example 53] | 36% |
| O=C(O)CCCOc1ccc(-c2ccc(-c3ncc(C(F)(F)F)[nH]3)cn2)cc1 [Example 11] | 31% |
| O=C(O)C1(COc2ccc(-c3ccc(-c4ncc(C(F)(F)F)[nH]4)cn3)cc2)CCOCC1 [Example 21] | 20% |
| CC(C)(COc1ccc(-c2ccc(-c3ncc(C(F)(F)F)[nH]3)cn2)c(F)c1F)C(=O)O [Example 75] | 5% |
| COc1cc(-c2cnc(OCC(C)(C)C(=O)O)cc2C)ccc1-c1ncc(C(F)(F)F)[nH]1 [Example 129] | 16% |
| Cc1cc(OCC(C)(C)C(=O)O)ncc1-c1ccc(-c2ncc(C3(C(F)(F)F)CCC3)[nH]2)c(F)c1 [Example 52] | 26% |
| Cc1cc(-c2cnc(OCC(C)(C)C(=O)O)nc2)ccc1-c1ncc(C(F)(F)F)[nH]1 [Example 145] | 43% |
| CC(C)(COc1cnc(-c2ccc(-c3ncc(C(C)(C)C(F)(F)F)[nH]3)cc2)cn1)C(=O)O [Example 50] | 21% |
| Cc1cc(OCC2(C(=O)O)CC2)ncc1-c1cnc(-c2ncc(C(F)(F)F)[nH]2)c(Cl)c1 [Example 139] | 52% |
| CC(C)(COc1cnc(-c2ccc(-c3ncc(C4(C(F)(F)F)CCC4)[nH]3)cc2)cn1)C(=O)O [Example 48] | 23% |
| Cc1cc(OCC(C)(C)C(=O)O)ncc1-c1ccc(-c2ncc(C(F)(F)F)[nH]2)c(C2CC2)c1 [Example 131] | 57% |
| CC(C)(COc1ccc(-c2ccc(-c3ncc(C(F)(F)F)[nH]3)c(F)c2F)cn1)C(=O)O [Example 80] | 41% |
| CC(C)(COc1ccc(-c2ccc(-c3ncc(C(C)(C)C)[nH]3)cn2)cc1)C(=O)O [Example 57] | 43% |
| Cc1cc(OCC(C)(C)C(=O)O)ncc1-c1ccc(-c2ncc(C3(C(F)(F)F)CCC3)[nH]2)nc1 [Example 46] | 13% |
| CCC(CC)(COc1cc(C)c(-c2ccc(-c3ncc(C(F)(F)F)[nH]3)nc2)cn1)C(=O)O [Example 127] | 44% |
| CC(C)(COc1ccc(-c2ccc(-c3ncc(CCC(F)(F)F)[nH]3)cn2)cc1)C(=O)O [Example 24] | 33% |
